# According to patent US20250230165A1, “HETEROCYCLIC COMPOUNDS FOR USE IN THE TREATMENT OF CANCER” (ARTIOS PHARMA LIMITED, priority 2021, published 2025):
# Molecular target: T1, Human Polθ polymerase domain (aa1820-2590) (Homo sapiens, UniProt O75417)
# T1 construct: Human Polθ polymerase domain (aa1820-2590) was expressed in E. coli; made in house; host or cells: E. coli
# T1 sequence (O75417 1820-2590): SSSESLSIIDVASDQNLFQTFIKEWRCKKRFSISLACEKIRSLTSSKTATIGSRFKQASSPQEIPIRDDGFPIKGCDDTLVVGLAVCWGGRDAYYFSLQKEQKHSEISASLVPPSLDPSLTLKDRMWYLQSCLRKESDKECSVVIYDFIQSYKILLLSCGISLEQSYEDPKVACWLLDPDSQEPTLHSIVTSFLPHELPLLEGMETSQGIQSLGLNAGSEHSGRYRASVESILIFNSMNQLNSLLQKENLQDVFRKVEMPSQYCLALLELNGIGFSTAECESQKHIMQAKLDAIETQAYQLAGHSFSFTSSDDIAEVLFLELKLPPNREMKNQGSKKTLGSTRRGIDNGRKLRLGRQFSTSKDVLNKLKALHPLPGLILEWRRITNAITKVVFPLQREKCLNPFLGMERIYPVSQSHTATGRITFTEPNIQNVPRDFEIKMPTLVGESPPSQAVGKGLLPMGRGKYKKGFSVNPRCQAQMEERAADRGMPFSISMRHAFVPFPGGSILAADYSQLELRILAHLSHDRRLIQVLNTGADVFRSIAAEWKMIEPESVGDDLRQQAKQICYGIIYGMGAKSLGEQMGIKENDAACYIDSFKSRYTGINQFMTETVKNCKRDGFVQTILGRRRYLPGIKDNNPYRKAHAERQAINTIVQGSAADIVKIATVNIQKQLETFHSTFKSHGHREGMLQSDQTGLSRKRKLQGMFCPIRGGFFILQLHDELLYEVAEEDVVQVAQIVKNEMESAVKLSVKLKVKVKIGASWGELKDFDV
# Experiment: Polθ Polymerase Domain Kinact/KI Assay (PicoGreen)
# Format: biochemical
# Conditions: 0.8 nM Polθ, 100 nM DNA substrate, kobs vs [I] fit for 2-step covalent inhibitor
# Summary of the method: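 Covalent Kinact/KI by PicoGreen DNA synthesis readout: E. coli-expressed Polθ polymerase domain (0.8 nM), 100 nM annealed DNA substrate, […], Tris pH 7.5 buffer with DTT, 1% DMSO; EDTA-stopped over 0–60 min time course. kobs from progress curves, then kobs vs [I] fit to two-step covalent model.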
row,Structure (SMILES),Kinact/Kl
1,"C=C(CN(C)C)C(=O)N[C@H]1CCc2nc(CN3C[C@H]4CC(=O)N(c5cc(C(F)(F)F)cc(C)n5)[C@@H]4C(=O)N(C)c4cccc(C)c43)cn2C1 (racemic) [Example 329b, N-((S/R)-2-(((3aR, 11aS)-6,10-dimethyl-1-(6-methyl-4-(tri-fluoromethyl)pyridin-2-yl)-2,11-dioxo-1,2,3,3a,4,10,11,11a-octahydro-5H-benzo [b]pyrrolo[2,3-f][1,4]diazocin-5-yl)meth-yl)-5,6,7,8-tetrahydro-imidazo[1,2-a]pyr-idin-6-yl)-2-((dimeth-ylamino)methyl)-acrylamide]",5.73e+06 M⁻¹ s⁻¹
2,"C=C(CN(C)C)C(=O)N[C@H]1CCn2cc(CN3C[C@H]4CC(=O)N(c5cc(C(F)(F)F)cc(C)n5)[C@@H]4C(=O)N(C)c4cccc(C)c43)nc2C1 (racemic) [Example 330a, N-((S/R)-2-(((3aR, 11aS)-6,10-dimethyl-1-(6-methyl-4-(trifluoromethyl)-pyridin-2-yl)-2,11-dioxo-1,2,3,3a,4,10, 11,11a-octahydro-5H-benzo[b]pyrrolo [2,3-f][1,4]diazocin-5-yl)methyl)-5,6,7,8-tetrahydroimidazo [1,2-a]pyridin-7-yl)-2-((dimethylamino)-methyl)acrylamide]",2.74e+06 M⁻¹ s⁻¹
3,"C=C(CN(C)C)C(=O)N[C@@H]1CCn2cc(CN3C[C@H]4CC(=O)N(c5cc(C(F)(F)F)cc(C)n5)[C@@H]4C(=O)N(C)c4cccc(C)c43)nc2C1 (racemic) [Example 330b, N-((R/S)-2-(((3aR, 11aS)-6,10-dimethyl-1-(6-methyl-4-(trifluoromethyl)pyr-idin-2-yl)-2,11-dioxo-1,2,3,3a,4,10,11,11a-octahydro-5H-benzo [b]pyrrolo[2,3-f][1,4]diazocin-5-yl)meth-yl)-5,6,7,8-tetrahydro-imidazo[1,2-a]pyridin-7-yl)-2-((dimethyl-amino)methyl)acryl-amide]",1.15e+06 M⁻¹ s⁻¹
4,"C=CC(=O)N1CC(O[C@H]2CN(CCN3C[C@H]4CC(=O)N(c5cc(C(F)(F)F)cc(C)n5)[C@@H]4C(=O)N(C)c4cccc(F)c43)C[C@@H]2O)C1 (relative stereo) [Example 11, (3aR,11aS)-5-(2-((rel-trans)-3-((1-acryloylazetidin-3-yl)oxy)-4-hydroxypyrrolidin-1-yl)ethyl)-6-fluoro-10-methyl-1-(6-methyl-4-(trifluoromethyl)pyridin-2-yl)-1,3a,4,5,10,11a-hexahydro-2H-benzo[b]pyrrolo[2,3-f][1,4]diazocine-2,11(3H)-dione]",400000 M⁻¹ s⁻¹
5,"C=CC(=O)N1C[C@H]2CCN(CCN3C[C@H]4CC(=O)N(c5cc(C(F)(F)F)cc(C)n5)[C@@H]4C(=O)N(C)c4cccc(F)c43)C[C@H]2C1 (relative stereo) [Example 25a, (3aR,11aS)-5-(2-((3aS/R,7aS/R)-2-acryloyloctahydro-5H-pyrrolo[3,4-c]pyridin-5-yl)ethyl)-6-fluoro-10-methyl-1-(6-methyl-4-(trifluoromethyl)pyridin-2-yl)-1,3a,4,5,10,11a-hexahydro-2H-benzo[b]pyrrolo[2,3-f][1,4]diazocine-2, 11(3H)-dione]",200000 M⁻¹ s⁻¹

# The next lines start with the values.
row,Kinact/Kl,Structure (SMILES)
1,690000 M⁻¹ s⁻¹,"C=CC(=O)N1Cc2cc(CN3C[C@H]4CC(=O)N(c5cc(C(F)(F)F)cc(C)n5)[C@@H]4C(=O)N(C)c4cccc(C)c43)cnc2[C@H]1CC#N (racemic) [Example 321b, 2-((R/S)-6-acryloyl-3-(((3aR,11aS)-6,10-dimethyl-1-(6-meth-yl-4-(trifluorometh-yl)pyridin-2-yl)-2,11-dioxo-1,2,3,3a, 4,10,11,11a-octa-hydro-5H-benzo[b]pyrrolo[2,3-f][1,4]diazocin-5-yl)meth-yl)-6,7-dihydro-5H-pyrrolo[3,4-b]pyr-idin-7-yl)acetonitrile]"
2,1.56e+06 M⁻¹ s⁻¹,"C=CC(=O)N1Cc2nc(CN3C[C@H]4CC(=O)N(c5cc(C(F)(F)F)cc(C)n5)[C@@H]4C(=O)N(C)c4cccc(C)c43)cn2C[C@H]1C(F)(F)F (racemic) [Example 322a, (3aR,11aS)-5-(((S/R)-7-acryloyl-6-(trifluoromethyl)-5,6,7,8-tetrahydro-imidazo[1,2-a]pyr-azin-2-yl)methyl)-6,10-dimethyl-1-(6-methyl-4-(trifluoro-methyl)pyridin-2-yl)-1,3a,4,5,10,11a-hexahydro-2H-benzo[b]pyrrolo [2,3-f][1,4]diazo-cine-2,11(3H)-dione]"
3,1.13e+06 M⁻¹ s⁻¹,"C=CC(=O)N1Cc2nc(CN3C[C@H]4CC(=O)N(c5cc(C(F)(F)F)cc(C)n5)[C@@H]4C(=O)N(C)c4cccc(C)c43)cn2C[C@@H]1C(F)(F)F (racemic) [Example 322b, (3aR,11aS)-5-(((R/S)-7-acryloyl-6-(trifluoromethyl)-5,6,7,8-tetrahydro-imidazo[1,2-a]pyr-azin-2-yl)methyl)-6,10-dimethyl-1-(6-methyl-4-(trifluoro-methyl)pyridin-2-yl)-1,3a,4,5,10,11a-hexahydro-2H-benzo[b]pyrrolo[2,3-f][1,4]diazocine-2,11(3H)-dione]"
4,640000 M⁻¹ s⁻¹,"C=CC(=O)N1CCOC[C@H]1c1ccc(CN2C[C@H]3CC(=O)N(c4cc(C(F)(F)F)cc(C)n4)[C@@H]3C(=O)N(C)c3cccc(C)c32)cc1 (racemic) [Example 323a, (3aR,11aS)-5-(4-((R/S)-4-acryloyl-morpholin-3-yl)-benzyl)-6,10-di-methyl-1-(6-meth-yl-4-(trifluorometh-yl)pyridin-2-yl)-1,3a,4,5,10,11a-hexahydro-2H-benzo[b]pyrrolo [2,3-f][1,4]diazo-cine-2,11(3H)-dione]"
5,330000 M⁻¹ s⁻¹,"C=CC(=O)N1CCOC[C@@H]1c1ccc(CN2C[C@H]3CC(=O)N(c4cc(C(F)(F)F)cc(C)n4)[C@@H]3C(=O)N(C)c3cccc(C)c32)cc1 (racemic) [Example 323b, (3aR,11aS)-5-(4-((S/R)-4-acryloyl-morpholin-3-yl)-benzyl)-6,10-dimeth-yl-1-(6-methyl-4-(trifluoromethyl)-pyridin-2-yl)-1,3a,4,5,10,11a-hexahydro-2H-benzo[b]pyrrolo [2,3-f][1,4]diazocine-2,11(3H)-dione]"
6,150000 M⁻¹ s⁻¹,"C=CC(=O)N1CCOC[C@H]1c1ccc(CN2C[C@H]3CC(=O)N(c4cc(C(F)(F)F)cc(C)n4)[C@@H]3C(=O)N(C)c3cccc(C)c32)cn1 (racemic) [Example 324a, (3aR,11aS)-5-((6-((R/S)-4-acryloyl-morpholin-3-yl)pyr-idin-3-yl)methyl)-6,10-dimethyl-1-(6-methyl-4-(trifluoro-methyl)pyridin-2-yl)-1,3a,4,5,10, 11a-hexahydro-2H-benzo[b]pyrrolo [2,3-f][1,4]diazo-cine-2,11(3H)-dione]"
7,470000 M⁻¹ s⁻¹,"C=CC(=O)N1CCOC[C@@H]1c1ccc(CN2C[C@H]3CC(=O)N(c4cc(C(F)(F)F)cc(C)n4)[C@@H]3C(=O)N(C)c3cccc(C)c32)cn1 (racemic) [Example 324b, (3aR,11aS)-5-((6-((S/R)-4-acryloyl-morpholin-3-yl)pyr-idin-3-yl)methyl)-6,10-dimethyl-1-(6-methyl-4-(trifluoro-methyl)pyridin-2-yl)-1,3a,4,5,10,11a-hexahydro-2H-benzo[b]pyrrolo [2,3-f][1,4]diazo-cine-2,11(3H)-dione]"
